Values quoted from earlier work as cited in US20250009670A1, “Stable Solid Oral Formulation Of Tafamidis Or Pharmaceutically Acceptable Salt Thereof” (Navinta, LLC, priority 2023, published 2025).

## O=C(O)c1ccc2nc(-c3cc(Cl)cc(Cl)c3)oc2c1 [Tafamidis, 2-(3,5-dichlorophenyl)-1,3-benzoxazole-6-carboxylic acid]
  aqueous solubility: low aqueous solubility
